System: MV-4-11 cells
Assay: Gene expression microarray analysis (Affymetrix PrimeView) and GSEA
Format: cell-based, human
Parameters: RFU PODN (11730768_x_at) / Fold change /veh PODN (11730768_x_at) / RFU LINC00158 (11744669_a_at) / Fold change /veh LINC00158 (11744669_a_at) / RFU DUSP10 (11751237_a_at) / Fold change /veh DUSP10 (11751237_a_at) / RFU ID3 (11757404_x_at) / Fold change /veh ID3 (11757404_x_at) / RFU PLEKHG5 (11737974_s_at) / Fold change /veh PLEKHG5 (11737974_s_at) / RFU LRRC4B (11730491_at) / Fold change /veh LRRC4B (11730491_at) / RFU GIMAP4 (11747438_a_at) / Fold change /veh GIMAP4 (11747438_a_at) / RFU KRT8 (11758183_x_at) / Fold change /veh KRT8 (11758183_x_at) / RFU CNN1 (11734310_a_at) / Fold change /veh CNN1 (11734310_a_at) / RFU VPS37D (11726825_at) / Fold change /veh VPS37D (11726825_at) / RFU C10orf10 (11716522_x_at) / Fold change /veh C10orf10 (11716522_x_at) / RFU KIR2DL2 /// KIR2DL4 /// KIR2DL5A /// KIR2DL5B /// KIR2DS1 /// KIR2DS2 /// KIR2DS3 /// KIR2DS4 /// KIR3DL3 /// KIR3DL3 /// KIR3DS1 (11738374_at) / Fold change /veh KIR2DL2 /// KIR2DL4 /// KIR2DL5A /// KIR2DL5B /// KIR2DS1 /// KIR2DS2 /// KIR2DS3 /// KIR2DS4 /// KIR3DL3 /// KIR3DL3 /// KIR3DS1 (11738374_at) / RFU C1QL1 (11718748_at) / Fold change /veh C1QL1 (11718748_at) / RFU TMPRSS4 (11747572_a_at) / Fold change /veh TMPRSS4 (11747572_a_at) / RFU HAMP (11756126_x_at) / Fold change /veh HAMP (11756126_x_at) / RFU RNFT2 (11725882_a_at) / Fold change /veh RNFT2 (11725882_a_at) / RFU NR4A2 (11747474_a_at) / Fold change /veh NR4A2 (11747474_a_at) / RFU ABCC12 (11746883_a_at) / Fold change /veh ABCC12 (11746883_a_at) / RFU TMEM136 (11760407_x_at) / Fold change /veh TMEM136 (11760407_x_at) / RFU CLDN22 /// WWC2 (11732394_at) / Fold change /veh CLDN22 /// WWC2 (11732394_at) / RFU HLA-DPB1 (11760878_x_at) / Fold change /veh HLA-DPB1 (11760878_x_at) / RFU SPINT1 (11716480_a_at) / Fold change /veh SPINT1 (11716480_a_at) / RFU GAP43 (11754022_s_at) / Fold change /veh GAP43 (11754022_s_at) / RFU A4GNT (11735810_at) / Fold change /veh A4GNT (11735810_at) / RFU PRB3 (11715151_x_at) / Fold change /veh PRB3 (11715151_x_at) / RFU TUBB4B (11761932_at) / Fold change /veh TUBB4B (11761932_at) / RFU CAPN14 (11732068_a_at) / Fold change /veh CAPN14 (11732068_a_at) / RFU TMCC2 (11721928_a_at) / Fold change /veh TMCC2 (11721928_a_at) / RFU IRGQ (11745062_a_at) / Fold change /veh IRGQ (11745062_a_at) / RFU FAM174B (11720279_a_at) / Fold change /veh FAM174B (11720279_a_at) / RFU TMPRSS4 (11748680_a_at) / Fold change /veh TMPRSS4 (11748680_a_at) / RFU FAM212B (11763350_a_at) / Fold change /veh FAM212B (11763350_a_at) / RFU PLEKHG5 (11743358_a_at) / Fold change /veh PLEKHG5 (11743358_a_at) / RFU ZSCAN30 (11745921_a_at) / Fold change /veh ZSCAN30 (11745921_a_at) / RFU CMKLR1 (11741424_a_at) / Fold change /veh CMKLR1 (11741424_a_at) / RFU LOC101060620 /// MAPK8IP1 (11723275_at) / Fold change /veh LOC101060620 /// MAPK8IP1 (11723275_at) / RFU SPTSSB (11747773_x_at) / Fold change /veh SPTSSB (11747773_x_at) / RFU PRSS12 (11739890_at) / Fold change /veh PRSS12 (11739890_at) / RFU BIN1 (11741810_x_at) / Fold change /veh BIN1 (11741810_x_at) / RFU WNT11 (11732464_a_at) / Fold change /veh WNT11 (11732464_a_at) / RFU C10orf10 (11716521_a_at) / Fold change /veh C10orf10 (11716521_a_at) / RFU C5orf56 (11738089_at) / Fold change /veh C5orf56 (11738089_at) / RFU CYB561 (11721691_x_at) / Fold change /veh CYB561 (11721691_x_at) / RFU ANKRD19P (11752326_a_at) / Fold change /veh ANKRD19P (11752326_a_at) / RFU OR2T12 /// OR2T33 /// OR2T8 (11738714_s_at) / Fold change /veh OR2T12 /// OR2T33 /// OR2T8 (11738714_s_at) / RFU VCAN (11748164_a_at) / Fold change /veh VCAN (11748164_a_at) / RFU JSRP1 (11732532_at) / Fold change /veh JSRP1 (11732532_at) / RFU KRTAP10-11 (11738290_x_at) / Fold change /veh KRTAP10-11 (11738290_x_at) / RFU MYO3A (11730013_a_at) / Fold change /veh MYO3A (11730013_a_at) / RFU EBF3 (11725865_a_at) / Fold change /veh EBF3 (11725865_a_at) / RFU CAMK2N1 (11719241_x_at) / Fold change /veh CAMK2N1 (11719241_x_at) / RFU C5orf56 (11738088_a_at) / Fold change /veh C5orf56 (11738088_a_at) / RFU OLFML3 (11715873_a_at) / Fold change /veh OLFML3 (11715873_a_at) / RFU LOC100653217 /// NTM (11731650_a_at) / Fold change /veh LOC100653217 /// NTM (11731650_a_at) / RFU MAPK11 (11762145_a_at) / Fold change /veh MAPK11 (11762145_a_at) / RFU FIZ1 (11724087_x_at) / Fold change /veh FIZ1 (11724087_x_at) / RFU OASL (11726364_x_at) / Fold change /veh OASL (11726364_x_at) / RFU SOX15 (11748057_x_at) / Fold change /veh SOX15 (11748057_x_at) / RFU CD79A (11719716_a_at) / Fold change /veh CD79A (11719716_a_at) / RFU HIST1H1D (11736915_at) / Fold change /veh HIST1H1D (11736915_at) / RFU CASKIN2 (11723855_a_at) / Fold change /veh CASKIN2 (11723855_a_at) / RFU LOC730098 (11760151_x_at) / Fold change /veh LOC730098 (11760151_x_at) / RFU OR4N2 (11742367_at) / Fold change /veh OR4N2 (11742367_at) / RFU PRRT2 (11749266_a_at) / Fold change /veh PRRT2 (11749266_a_at) / RFU SNX32 (11753110_a_at) / Fold change /veh SNX32 (11753110_a_at) / RFU CDHR5 (11726645_a_at) / Fold change /veh CDHR5 (11726645_a_at) / RFU RCAN1 (11760418_a_at) / Fold change /veh RCAN1 (11760418_a_at) / RFU FAM167A (11723789_a_at) / Fold change /veh FAM167A (11723789_a_at) / RFU FAM26E (11764081_at) / Fold change /veh FAM26E (11764081_at) / RFU ISYNA1 (11749810_s_at) / Fold change /veh ISYNA1 (11749810_s_at) / RFU ACY1 (11761880_at) / Fold change /veh ACY1 (11761880_at) / RFU 11764098_at / Fold change /veh 11764098_at / RFU SAMD14 (11745864_x_at) / Fold change /veh SAMD14 (11745864_x_at) / RFU NPB (11741838_a_at) / Fold change /veh NPB (11741838_a_at) / RFU TMPRSS6 (11731388_a_at) / Fold change /veh TMPRSS6 (11731388_a_at) / RFU KRTAP10-2 (11738614_at) / Fold change /veh KRTAP10-2 (11738614_at) / RFU ARHGAP8 /// PRR5-ARHGAP8 (11727945_x_at) / Fold change /veh ARHGAP8 /// PRR5-ARHGAP8 (11727945_x_at) / RFU KRTAP5-7 /// NADSYN1 (11734609_at) / Fold change /veh KRTAP5-7 /// NADSYN1 (11734609_at) / RFU RASL12 (11751679_a_at) / Fold change /veh RASL12 (11751679_a_at) / RFU CDKN2B (11736163_a_at) / Fold change /veh CDKN2B (11736163_a_at) / RFU PRF1 (11729649_at) / Fold change /veh PRF1 (11729649_at) / RFU, ZNF638 /// ZNF638-IT1 / Fold change vs veh, ZNF638 /// ZNF638-IT1 / RFU, PANK3 / Fold change vs veh, PANK3 / RFU, SH3YL1 / Fold change vs veh, SH3YL1 / RFU, ZEB2 / Fold change vs veh, ZEB2 / RFU, NRIP1 / Fold change vs veh, NRIP1 / RFU, PTTG1IP / Fold change vs veh, PTTG1IP / RFU, CAPN2 / Fold change vs veh, CAPN2 / RFU, MED14 / Fold change vs veh, MED14 / RFU, SNORA58 / Fold change vs veh, SNORA58 / RFU, C1orf63 / Fold change vs veh, C1orf63 / RFU, LRRFIP1 / Fold change vs veh, LRRFIP1 / RFU, NDUFAF7 / Fold change vs veh, NDUFAF7 / RFU, SLC12A2 / Fold change vs veh, SLC12A2 / RFU, IBTK / Fold change vs veh, IBTK / RFU, ESF1 / Fold change vs veh, ESF1 / Fold change vs veh, TMEM50B / RFU, TAOK1 / Fold change vs veh, TAOK1 / RFU, ACBD3 / Fold change vs veh, ACBD3 / RFU, TMA16 / Fold change vs veh, TMA16 / RFU, RWDD3 / Fold change vs veh, RWDD3 / RFU, BCAT1 / Fold change vs veh, BCAT1 / RFU, EDEM3 / Fold change vs veh, EDEM3 / RFU, TMEM33 / Fold change vs veh, TMEM33 / RFU, WDR75 / Fold change vs veh, WDR75 / RFU, AHCTF1 / Fold change vs veh, AHCTF1 / RFU, TFRC / Fold change vs veh, TFRC / RFU, ZDHHC17 / Fold change vs veh, ZDHHC17 / RFU, NOM1 / Fold change vs veh, NOM1 / RFU, ARL8B / Fold change vs veh, ARL8B / RFU, ZBTB11 / Fold change vs veh, ZBTB11 / RFU, TAMM41 / Fold change vs veh, TAMM41 / RFU, KIAA1704 /// LOC100996395 / Fold change vs veh, KIAA1704 /// LOC100996395 / RFU, ING1 / Fold change vs veh, ING1 / RFU, TRMT61B / Fold change vs veh, TRMT61B / RFU, FUBP3 / Fold change vs veh, FUBP3 / RFU, TP53 / Fold change vs veh, TP53 / RFU, TNKS2 / Fold change vs veh, TNKS2 / RFU, ZFP14 / Fold change vs veh, ZFP14 / RFU, ACTR2 / Fold change vs veh, ACTR2 / RFU, PPP3R1 / Fold change vs veh, PPP3R1 / RFU, PIK3R1 / Fold change vs veh, PIK3R1 / RFU, HNRNPA1 / Fold change vs veh, HNRNPA1 / RFU, RNF170 / Fold change vs veh, RNF170 / RFU, ZNF28 / Fold change vs veh, ZNF28 / RFU, RNGTT / Fold change vs veh, RNGTT / RFU, OGT / Fold change vs veh, OGT / RFU, BRD1 / Fold change vs veh, BRD1 / RFU, MARS / Fold change vs veh, MARS / RFU, ZNF655 / Fold change vs veh, ZNF655 / RFU, FAHD1 / Fold change vs veh, FAHD1 / RFU, BDP1 / Fold change vs veh, BDP1 / RFU, LRRCC1 / Fold change vs veh, LRRCC1 / RFU, ARID1A / Fold change vs veh, ARID1A / RFU, ZNF146 / Fold change vs veh, ZNF146 / RFU, ZNF330 / Fold change vs veh, ZNF330 / RFU, GPN3 / Fold change vs veh, GPN3 / RFU, C9orf123 / Fold change vs veh, C9orf123 / RFU, N4BP2L2 / Fold change vs veh, N4BP2L2 / RFU, ARFIP1 / Fold change vs veh, ARFIP1 / RFU, FAM179B / Fold change vs veh, FAM179B / RFU, BCL10 / Fold change vs veh, BCL10 / RFU, UHRF1BP1L / Fold change vs veh, UHRF1BP1L / RFU, BET1 / Fold change vs veh, BET1 / RFU, CNOT2 / Fold change vs veh, CNOT2 / RFU, ZNF268 / Fold change vs veh, ZNF268 / Fold change vs veh, ZNF507 / RFU, DGCR2 / Fold change vs veh, DGCR2 / RFU, WDSUB1 / Fold change vs veh, WDSUB1 / Fold change vs veh, HSP90B1 /// MIR3652 / RFU, ADSS / Fold change vs veh, ADSS / RFU, GK / Fold change vs veh, GK / RFU, ZNF148 / Fold change vs veh, ZNF148 / RFU, TAF9 / Fold change vs veh, TAF9 / RFU, SLC1A5 / Fold change vs veh, SLC1A5 / RFU, SLMO2 / Fold change vs veh, SLMO2 / RFU, ABCC4 / Fold change vs veh, ABCC4 / RFU, LOC101060439 /// RAP1B / Fold change vs veh, LOC101060439 /// RAP1B / RFU, RFX7 / Fold change vs veh, RFX7 / RFU, GTPBP10 / Fold change vs veh, GTPBP10 / RFU, CNEP1R1 / Fold change vs veh, CNEP1R1 / RFU, BIVM-ERCC5 /// ERCC5 / Fold change vs veh, BIVM-ERCC5 /// ERCC5 / RFU, ILF3 / Fold change vs veh, ILF3 / RFU 11762660_at / Fold change /veh 11762660_at / RFU VCAN (11757783_s_at) / Fold change /veh VCAN (11757783_s_at) / RFU DDX43 (11728927_at) / Fold change /veh DDX43 (11728927_at) / RFU KRT8 (11758188_x_at) / Fold change /veh KRT8 (11758188_x_at) / RFU NKD1 (11759106_at) / Fold change /veh NKD1 (11759106_at) / RFU SRD5A1 (11742802_a_at) / Fold change /veh SRD5A1 (11742802_a_at) / RFU TPSAB1 /// TPSB2 (11721975_s_at) / Fold change /veh TPSAB1 /// TPSB2 (11721975_s_at) / RFU GSTM3 (11746129_a_at) / Fold change /veh GSTM3 (11746129_a_at) / RFU IL23R (11737362_x_at) / Fold change /veh IL23R (11737362_x_at) / RFU TMEM51 (11727254_a_at) / Fold change /veh TMEM51 (11727254_a_at) / RFU PIWIL2 (11732686_x_at) / Fold change /veh PIWIL2 (11732686_x_at) / RFU ORM1 (11744905_x_at) / Fold change /veh ORM1 (11744905_x_at) / RFU CCDC152 (11743942_at) / Fold change /veh CCDC152 (11743942_at) / RFU ECM1 (11717891_a_at) / Fold change /veh ECM1 (11717891_a_at) / RFU IL23R (11748794_a_at) / Fold change /veh IL23R (11748794_a_at) / RFU TNFAIP8L3 (11732012_x_at) / Fold change /veh TNFAIP8L3 (11732012_x_at) / RFU MBOAT4 (11741988_at) / Fold change /veh MBOAT4 (11741988_at) / RFU 11764193_at / Fold change /veh 11764193_at / RFU TMEM53 (11763286_at) / Fold change /veh TMEM53 (11763286_at) / RFU MAGEB2 (11727129_at) / Fold change /veh MAGEB2 (11727129_at) / RFU TMEM200A (11744735_a_at) / Fold change /veh TMEM200A (11744735_a_at) / RFU CCDC152 (11751479_a_at) / Fold change /veh CCDC152 (11751479_a_at) / RFU FAM211A (11726209_a_at) / Fold change /veh FAM211A (11726209_a_at) / RFU RGS16 (11746705_a_at) / Fold change /veh RGS16 (11746705_a_at) / RFU VCAN (11755009_s_at) / Fold change /veh VCAN (11755009_s_at) / RFU RHOB (11743442_s_at) / Fold change /veh RHOB (11743442_s_at) / RFU RGS16 (11720943_a_at) / Fold change /veh RGS16 (11720943_a_at) / RFU RGS16 (11720944_at) / Fold change /veh RGS16 (11720944_at) / RFU, VPS4B / Fold change vs veh, VPS4B / RFU, CREB1 / Fold change vs veh, CREB1 / RFU, DNAJC13 / Fold change vs veh, DNAJC13 / RFU, GNAQ / Fold change vs veh, GNAQ / RFU, CDK5R1 / Fold change vs veh, CDK5R1 / RFU, ZRANB3 / Fold change vs veh, ZRANB3 / RFU, CUL4A / Fold change vs veh, CUL4A / RFU, CCNY / Fold change vs veh, CCNY / RFU, UFL1 / Fold change vs veh, UFL1 / RFU, COG3 / Fold change vs veh, COG3 / RFU, DIAPH2 / Fold change vs veh, DIAPH2 / RFU, SKA2 / Fold change vs veh, SKA2 / RFU, AFF3 / Fold change vs veh, AFF3 / RFU, LMF1 / Fold change vs veh, LMF1 / RFU, IPO11 / Fold change vs veh, IPO11 / RFU, DFFB / Fold change vs veh, DFFB / RFU, FOXP1 / Fold change vs veh, FOXP1 / RFU, CARD8 / Fold change vs veh, CARD8 / RFU, STRN3 / Fold change vs veh, STRN3 / RFU, ADK / Fold change vs veh, ADK / RFU, RASSF2 / Fold change vs veh, RASSF2 / RFU, WIPF1 / Fold change vs veh, WIPF1 / RFU, LARP1B / Fold change vs veh, LARP1B / RFU, RASA1 / Fold change vs veh, RASA1 / RFU, RB1 / Fold change vs veh, RB1 / RFU, PPFIA1 / Fold change vs veh, PPFIA1 / RFU, MAT2A / Fold change vs veh, MAT2A / RFU, CCT5 / Fold change vs veh, CCT5 / RFU, WDR92 / Fold change vs veh, WDR92 / RFU, CUX1 / Fold change vs veh, CUX1 / RFU, TTC7A / Fold change vs veh, TTC7A / RFU, TMEM135 / Fold change vs veh, TMEM135 / RFU, DEPTOR / Fold change vs veh, DEPTOR / RFU, CPM / Fold change vs veh, CPM / RFU, DNAJB6 / Fold change vs veh, DNAJB6 / RFU, CACNA2D3 / Fold change vs veh, CACNA2D3 / RFU, DTX4 / Fold change vs veh, DTX4 / RFU, TFCP2 / Fold change vs veh, TFCP2 / RFU, GMCL1 /// GMCL1P1 / Fold change vs veh, GMCL1 /// GMCL1P1 / RFU, AEBP2 / Fold change vs veh, AEBP2 / RFU, SNHG1 /// SNORD22 /// SNORD25 /// SNORD26 /// SNORD27 /// SNORD28 /// SNORD29 /// SNORD31 / Fold change vs veh, SNHG1 /// SNORD22 /// SNORD25 /// SNORD26 /// SNORD27 /// SNORD28 /// SNORD29 /// SNORD31 / Fold change (Aza/veh), C12orf56 (ProbeSet 11735607_a_at) / Fold change (ACY-1035/veh), C12orf56 (ProbeSet 11735607_a_at) / Fold change (Aza/veh), FGFR1OP (ProbeSet 11751329_s_at) / Fold change (ACY-1035/veh), FGFR1OP (ProbeSet 11751329_s_at) / Fold change (Aza/veh), VPS36 (ProbeSet 11739960_a_at) / Fold change (ACY-1035/veh), VPS36 (ProbeSet 11739960_a_at) / RFU SYPL1 (11715823_x_at) / Fold change /veh SYPL1 (11715823_x_at) / RFU IGFBP7 (11715501_s_at) / Fold change /veh IGFBP7 (11715501_s_at) / RFU REEP3 (11722064_at) / Fold change /veh REEP3 (11722064_at) / RFU IGLL1 (11728026_x_at) / Fold change /veh IGLL1 (11728026_x_at): dose or concentration left out as unconfirmed
Settings: ProbeSet 11749645_x_at; LIST B

SMILES: Nc1ncn([C@@H]2O[C@H](CO)[C@@H](O)[C@H]2O)c(=O)n1 [azacitidine]
- Fold change vs veh, ZNF268: 0.97
